{"source": "patent US20040023295A1", "about": "“Methods and systems for analyzing complex biological systems” (priority 2001, published 2004)", "test_system": "Saccharomyces cerevisiae wild type strain BY4743", "assay": "AF1 combined gene expression and metabolite data mapped to KEGG reactions and pathways", "assay_type": "cell-based", "excerpt": "In AF1, two different technologies were utilized: gene expression analysis (for examination of mRNA expression) and metabolite analysis. […] As noted previously, existing metabolic databases may be helpful in practicing the methods and systems of the present invention, but many databases include limitations that make their use in data analysis and pathway mapping less than straightforward. […] This caveat to KEGG makes it difficult to pinpoint the correct pathway when attempting to link a gene to a specific pathway. The pathway score indicates how meaningful the mapping is, or how likely it is to be correctly indicative of the pathway involved in the perturbation under examination. […] Degree of perturbation can be calculated, for example, based on a number of standard deviations from a norm, and included in an equation such as the one shown above, so that not only the number of pathways is taken into account, but also accounts for the amount of gene transcript or compound present as compared to a control. […] KEGG links 676 compounds measured in AF1 to a total of 92 pathways. Of the 676 compounds under consideration, 77 were detected in the AF1 samples. […]"}
{"smiles": "C[C@@H]1[C@H](O)[C@@H](C)/C=C/C=C/C=C/C=C/C=C/C=C/C=C/[C@H](O[C@@H]2O[C@H](C)[C@@H](O)[C@H](N)[C@@H]2O)C[C@@H]2O[C@](O)(C[C@@H](O)C[C@@H](O)[C@H](O)CC[C@@H](O)C[C@@H](O)CC(=O)O[C@H]1C)C[C@H](O)[C@H]2C(=O)O", "note": "[Amphoteracin B]", "values": [{"measurement": "# Reactions (title: Number Of Pathways Having at Least One Enzyme and One Compound Perturbed)", "value": 37}, {"measurement": "# Reactions Having an Enzyme and at Least One Compound Perturbed", "value": 54}]}
